This is an account of results in US20250381242A1 (INVAIO SCIENCES, INC., priority 2024, published 2025).

One experiment concerns E. coli. The experiment in a line: Bacterial growth inhibition by OD600 absorbance, E. coli. The class given is cell-based, E. coli (DH5-alpha). The conditions noted are these: peptide 10 μM, 24 hours at 37° C., OD 600 nm. The method in brief:
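Peptides added to bacterial culture at 10 μM final (0.1% DMSO); X. citri grown at 30° C., E. coli at 37° C., for 24 h. OD600 read before and after growth; percent inhibition derived relative to 0.1% DMSO negative and oxytetracycline/streptomycin positive controls.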

A further experiment concerns X. citri. The experiment in a line: Bacterial growth inhibition by OD600 absorbance, X. citri. The experiment is classed as cell-based, X. citri subsp. citri (ATCC 49118). The conditions noted are these: peptide 10 μM, 24 hours at 30° C., OD 600 nm.
In the next experiment the test system is A. tumefaciens. The conditions noted are these: 24 h, 10 μM.
For a further experiment, the system named is E. amylovora. The conditions noted are these: 24 h, 10 μM.
The next experiment relates to L. crescens. Conditions: 10 μM.

No end group written: not given here.

As for GIKIAKKAITIAKKIAKIYW [compound 69], the “growth inhibition, E. coli” value with E. coli stood at 93.16%. Besides, the “growth inhibition, X. citri” value with X. citri amounted to 100.00%. Also, the “growth inhibition, A. tumefaciens” value with A. tumefaciens is recorded as 100.00%. For the same sequence, in the experiment on E. amylovora, the “growth inhibition, E. amylovora” value is on record as 100.00%. Also, the “growth inhibition, L. crescens” value with L. crescens is below 90%.

As for GIKKFLKSAKKFVKAFK [compound 86], in the experiment on E. coli, the “growth inhibition, E. coli” value is given as below 90%. Also, the “growth inhibition, X. citri” value with X. citri is on record as below 90%. Also, the “growth inhibition, A. tumefaciens” value in the experiment with A. tumefaciens is on record as 98.88%. Also, the “growth inhibition, E. amylovora” value with E. amylovora is 100.00%. The “growth inhibition, L. crescens” value in the experiment with L. crescens was below 90%.

Regarding GILKTIKSIASKLKRKAK [compound 85], in the experiment with E. coli, the “growth inhibition, E. coli” value is below 90%. Besides, in the experiment with X. citri, the “growth inhibition, X. citri” value was below 90%. Besides, the “growth inhibition, A. tumefaciens” value with A. tumefaciens is on record as below 90%. Further, the “growth inhibition, E. amylovora” value with E. amylovora amounted to 99.65%. For the same sequence, the “growth inhibition, L. crescens” value in the experiment on L. crescens is below 90%.

In the case of “GILKTIKSIASKVANTVQKLKRKAKNAVA [compound 20]”, in the experiment with E. coli, the “growth inhibition, E. coli” value was 99.03%. Also, the “growth inhibition, X. citri” value with X. citri stood at 100.00%. Also, the “growth inhibition, A. tumefaciens” value in the experiment with A. tumefaciens amounted to 100.00%. For the same sequence, the “growth inhibition, E. amylovora” value with E. amylovora was 100.00%. Further, the “growth inhibition, L. crescens” value in the experiment on L. crescens is given as below 90%.

For the sequence GILSKLGKALKKAAKHAAKA [compound 82], the “growth inhibition, E. coli” value in the experiment on E. coli was below 90%. Further, the “growth inhibition, X. citri” value with X. citri was below 90%. Moreover, the “growth inhibition, A. tumefaciens” value in the experiment with A. tumefaciens was below 90%. Further, the “growth inhibition, E. amylovora” value with E. amylovora turned out to be 100.00%. Also, the “growth inhibition, L. crescens” value with L. crescens is listed as below 90%.

As for GIMSSLMKKLKKIIAK [compound 99], in the experiment on E. coli, the “growth inhibition, E. coli” value is below 90%. The “growth inhibition, X. citri” value with X. citri is below 90%. Also, the “growth inhibition, A. tumefaciens” value in the experiment with A. tumefaciens was determined as 98.76%. Further, in the experiment on E. amylovora, the “growth inhibition, E. amylovora” value turned out to be 100.00%. Moreover, in the experiment with L. crescens, the “growth inhibition, L. crescens” value is on record as below 90%.

On to “GKLTKDKLKRGAKKALNVASKVAPIVAAGASIAR [compound 10]”, for which the “growth inhibition, E. coli” value in the experiment on E. coli is below 90%. Moreover, the “growth inhibition, X. citri” value in the experiment on X. citri was found to be 100.00%. Also, in the experiment with A. tumefaciens, the “growth inhibition, A. tumefaciens” value is recorded as 98.37%. Further, the “growth inhibition, E. amylovora” value in the experiment with E. amylovora is given as 100.00%. The “growth inhibition, L. crescens” value in the experiment with L. crescens is recorded as below 90%.

Regarding GLLKKIAKKAKKALKKLGY [compound 74], in the experiment with E. coli, the “growth inhibition, E. coli” value is below 90%. Also, the “growth inhibition, X. citri” value with X. citri was 100.00%. Also, the “growth inhibition, A. tumefaciens” value in the experiment on A. tumefaciens is 100.00%. Further, the “growth inhibition, E. amylovora” value with E. amylovora is recorded as 100.00%. In addition, the “growth inhibition, L. crescens” value in the experiment on L. crescens is given as below 90%.

As to GLLKKWLKKWKEFKRIVGY [compound 57], in the experiment with E. coli, the “growth inhibition, E. coli” value stood at 100.00%. Moreover, the “growth inhibition, X. citri” value in the experiment on X. citri was 100.00%. Further, the “growth inhibition, A. tumefaciens” value in the experiment on A. tumefaciens came out at 99.99%. Moreover, the “growth inhibition, E. amylovora” value in the experiment with E. amylovora is on record as 100.00%. Besides, in the experiment on L. crescens, the “growth inhibition, L. crescens” value is below 90%.

In the case of GLLSNVAGLLKQFAKGGVNAVLNPK [compound 45], the “growth inhibition, E. coli” value with E. coli is listed as below 90%. The “growth inhibition, X. citri” value in the experiment on X. citri is 100.00%. In addition, the “growth inhibition, A. tumefaciens” value in the experiment on A. tumefaciens is below 90%. The “growth inhibition, E. amylovora” value in the experiment on E. amylovora is recorded as 99.64%. The “growth inhibition, L. crescens” value with L. crescens is recorded as below 90%.

In the case of GLWSKIKKAAKTAGKAALGFVNKMV [compound 35], the “growth inhibition, E. coli” value with E. coli came to 100.00%. Also, the “growth inhibition, X. citri” value in the experiment on X. citri is recorded as 100.00%. Further, the “growth inhibition, A. tumefaciens” value with A. tumefaciens is reported as 100.00%. The “growth inhibition, E. amylovora” value in the experiment with E. amylovora was determined as 100.00%. Moreover, the “growth inhibition, L. crescens” value in the experiment with L. crescens was below 90%.

As to “GLWSKIKTAGKSVAKAAAKAAVKAVTNAV [compound 28]”, the “growth inhibition, E. coli” value in the experiment with E. coli came out at 100.00%. For the same sequence, the “growth inhibition, X. citri” value with X. citri came to 100.00%. The “growth inhibition, A. tumefaciens” value with A. tumefaciens came out at 100.00%. Moreover, the “growth inhibition, E. amylovora” value in the experiment on E. amylovora is reported as 100.00%. Further, the “growth inhibition, L. crescens” value in the experiment with L. crescens was below 90%.

With GMWKKILGKLIR [compound 134], the “growth inhibition, E. coli” value in the experiment on E. coli was below 90%. Further, the “growth inhibition, X. citri” value in the experiment on X. citri is listed as below 90%. Moreover, the “growth inhibition, A. tumefaciens” value with A. tumefaciens came to 100.00%. For the same sequence, in the experiment with E. amylovora, the “growth inhibition, E. amylovora” value turned out to be 100.00%. Moreover, the “growth inhibition, L. crescens” value in the experiment on L. crescens is below 90%.

With GMWSKLLGHLLR [compound 138], the “growth inhibition, E. coli” value in the experiment on E. coli was below 90%. Moreover, the “growth inhibition, X. citri” value with X. citri is below 90%. Besides, the “growth inhibition, A. tumefaciens” value with A. tumefaciens is reported as 100.00%. Besides, the “growth inhibition, E. amylovora” value with E. amylovora turned out to be 100.00%. The “growth inhibition, L. crescens” value in the experiment with L. crescens is below 90%.

As for “GWKDWAKKAGGWLKKKGPGMAKAALKAAMQ [compound 2]”, the “growth inhibition, E. coli” value in the experiment with E. coli is below 90%. For the same sequence, in the experiment on X. citri, the “growth inhibition, X. citri” value was found to be 100.00%. Also, the “growth inhibition, A. tumefaciens” value in the experiment on A. tumefaciens is 100.00%. In addition, the “growth inhibition, E. amylovora” value in the experiment on E. amylovora was 100.00%. In addition, in the experiment on L. crescens, the “growth inhibition, L. crescens” value is recorded as below 90%.

Regarding GWKKWLRKGAKHLGQAAIKGLAS [compound 46], the “growth inhibition, E. coli” value in the experiment with E. coli came out at 100.00%. The “growth inhibition, X. citri” value in the experiment on X. citri came out at 100.00%. Further, the “growth inhibition, A. tumefaciens” value in the experiment on A. tumefaciens is recorded as 100.00%. Moreover, the “growth inhibition, E. amylovora” value in the experiment with E. amylovora was 100.00%. Also, the “growth inhibition, L. crescens” value with L. crescens is below 90%.

On to “GWWRRTVDKVRNAGRKVAGFASKACGALGH [compound 13]”, for which the “growth inhibition, E. coli” value with E. coli is given as 100.00%. Further, the “growth inhibition, X. citri” value with X. citri turned out to be 100.00%. The “growth inhibition, A. tumefaciens” value in the experiment with A. tumefaciens amounted to 100.00%. Further, in the experiment with E. amylovora, the “growth inhibition, E. amylovora” value worked out at 100.00%. The “growth inhibition, L. crescens” value in the experiment on L. crescens amounted to 100.00%.

As to GYNYAKKLANLAKKFANALW [compound 66], the “growth inhibition, E. coli” value in the experiment with E. coli is reported as below 90%. In the experiment on X. citri, the “growth inhibition, X. citri” value came to 100.00%. The “growth inhibition, A. tumefaciens” value in the experiment on A. tumefaciens amounted to 99.99%. Besides, the “growth inhibition, E. amylovora” value with E. amylovora is on record as 97.23%. Further, the “growth inhibition, L. crescens” value in the experiment with L. crescens is below 90%.

As to IKKILSKIKKLLK [compound 122], in the experiment on E. coli, the “growth inhibition, E. coli” value was below 90%. Further, in the experiment on X. citri, the “growth inhibition, X. citri” value was determined as 100.00%. The “growth inhibition, A. tumefaciens” value with A. tumefaciens is recorded as 97.95%. Further, in the experiment on E. amylovora, the “growth inhibition, E. amylovora” value came to 93.74%. The “growth inhibition, L. crescens” value with L. crescens is on record as below 90%.

In the case of INWKKIASIGKEVLKAL [compound 94], the “growth inhibition, E. coli” value in the experiment on E. coli was below 90%. Moreover, the “growth inhibition, X. citri” value with X. citri was below 90%. For the same sequence, in the experiment on A. tumefaciens, the “growth inhibition, A. tumefaciens” value is 100.00%. For the same sequence, in the experiment on E. amylovora, the “growth inhibition, E. amylovora” value worked out at 100.00%. Moreover, in the experiment with L. crescens, the “growth inhibition, L. crescens” value is given as below 90%.

Take IRIRIRPIRIRIRP [compound 98]: the “growth inhibition, E. coli” value in the experiment on E. coli is 99.61%. Also, the “growth inhibition, X. citri” value in the experiment on X. citri was below 90%. Besides, in the experiment on A. tumefaciens, the “growth inhibition, A. tumefaciens” value worked out at 99.18%. Moreover, the “growth inhibition, E. amylovora” value with E. amylovora is listed as 99.58%. The “growth inhibition, L. crescens” value with L. crescens was below 90%.

In the case of IWSFLIKAATKLLPSLFGGGKKDS [compound 39], the “growth inhibition, E. coli” value in the experiment on E. coli amounted to 100.00%. The “growth inhibition, X. citri” value in the experiment with X. citri was 100.00%. Besides, in the experiment on A. tumefaciens, the “growth inhibition, A. tumefaciens” value was below 90%. Besides, in the experiment on E. amylovora, the “growth inhibition, E. amylovora” value was below 90%. The “growth inhibition, L. crescens” value in the experiment on L. crescens turned out to be 92.47%.

In the case of “KFFKRLLKSVRRAVKKFRKKPRLIGLSTLL [compound 8]”, the “growth inhibition, E. coli” value with E. coli was 100.00%. Moreover, the “growth inhibition, X. citri” value in the experiment on X. citri is 100.00%. The “growth inhibition, A. tumefaciens” value with A. tumefaciens was determined as 99.88%. Moreover, the “growth inhibition, E. amylovora” value with E. amylovora is 100.00%. Moreover, the “growth inhibition, L. crescens” value in the experiment on L. crescens is below 90%.
